According to patent US20250221963A1 (GH RESEARCH IRELAND LIMITED, priority 2022, published 2025):

Experiments:
[1] = test system: patients with treatment-resistant major depressive disorder (TRD); assay: Phase 1/2 clinical trial of inhaled 5-MeO-DMT in TRD; conditions: for Patients with at least one ADR: Part A
Description: Patients were assigned to different groups. In the context of the present invention, the group who received a single, 12 mg dose and the group who underwent an intra-day individualized dosing regimen (IDR) that allowed for multiple, escalating doses (6 mg, 12 mg and 18 mg) within a single day, driven by the intensity of the patient-reported psychedelic experience are of interest.
The data gathered include the assessment of the treated patients against several scales including the Montgomery Åsberg Depression Rating Scale (MADRS) and the Brief Psychiatric Rating Scale (BPRS).
This trial was designed in two parts. Part A was an open-label, single-arm, single-dose Phase 1 trial with two dose levels (12 mg (n=4) and 18 mg (n=4)). […] The primary endpoint of Part B was to assess the effects on the severity of depression, as assessed by the proportion of patients in remission on day seven after dosing, defined as a MADRS total score of less than or equal to 10.

[2] = test system: Escherichia coli WP2 uvrA pKM101; assay: Bacterial mutation test, Escherichia coli; assay type: cell-based; conditions: up to 5000 μg/plate, absence and presence of S-9
Description: These conditions included treatments at concentrations up to 5000 μg/plate (the maximum recommended concentration according to current regulatory guidelines), in the absence and in the presence of a rat liver metabolic activation system (S-9).

[3] = Pharmacokinetics of 5-MeO-DMT and bufotenine after inhalation; assay type: in vivo, human
Description: Blood samples were obtained at 1; 2; 4; 7; 10; 15; 20; 30; 45 min and 1; 1.5; 2; 3; 4 hours after administration.
PK parameters were generated by algebraic analysis of the concentration versus time plots for each individual. The analysis was carried out using the software Phoenix WinNonlin 6.3.

[4] = 12 mg n=4, 2 hours, baseline 16

Compound: COc1ccc2[nH]cc(CCN(C)C)c2c1 [5-MeO-DMT]
- MADRS Concentration Difficulties improvement ([1]; 12 mg n=4, 2 hours): 9 points
- MADRS Inability to Feel improvement ([1]; 12 mg n=4, 2 hours): 7 points
- MADRS Inner Tension improvement ([1]; 12 mg n=4, 2 hours): 11 points
- MADRS Lassitude improvement ([1]; 12 mg n=4, 2 hours): 6 points
- MADRS Pessimistic Thoughts improvement ([1]; 12 mg n=4, 2 hours): 8 points
- MADRS Pessimistic Thoughts percentage improvement ([1]; 12 mg n=4, 2 hours): 50.00%
- MADRS Suicidal Thoughts improvement ([1]; 12 mg n=4, 2 hours): 5 points
- MADRS Suicidal Thoughts aggregated score ([1]; 12 mg n=4, 2 hours, baseline 8): 3
- MADRS Inner Tension aggregated score ([1]; 12 mg n=4, 2 hours, baseline 13): 2
- MADRS Concentration Difficulties aggregated score [1, 4]: 7
- MADRS Inability to Feel aggregated score [1, 4]: 9
- MADRS Lassitude aggregated score [1, 4]: 10
- MADRS Pessimistic Thoughts aggregated score [1, 4]: 8
- BPRS Anxiety improvement ([1]; 12 mg n=4, 3 hours): 14 points
- BPRS Anxiety percentage improvement ([1]; 12 mg n=4, 3 hours): 56.00%
- BPRS Blunted Affect improvement ([1]; 12 mg n=4, 3 hours): 3 points
- BPRS Emotional Withdrawal improvement ([1]; 12 mg n=4, 3 hours): 2 points
- BPRS Guilt Feelings improvement ([1]; 12 mg n=4, 3 hours): 9 points
- BPRS Guilt Feelings percentage improvement ([1]; 12 mg n=4, 3 hours): 50.00%
- BPRS Tension improvement ([1]; 12 mg n=4, 3 hours): 5 points
- BPRS Blunted Affect aggregated score ([1]; 12 mg n=4, 3 hours, baseline 11): 8
- BPRS Emotional Withdrawal aggregated score ([1]; 12 mg n=4, 3 hours, baseline 13): 11
- BPRS Tension aggregated score ([1]; 12 mg n=4, 3 hours, baseline 14): 9
- BPRS Guilt Feelings aggregated score ([1]; 12 mg n=4, 3 hours, baseline 18): 9
- BPRS Anxiety aggregated score ([1]; 12 mg n=4, 3 hours, baseline 25): 11
- Patients maintaining remission ([1]; Day 7): 7/8
- MADRS Concentration Difficulties improvement ([1]; IDR n=8, 2 hours): 19 points
- MADRS Inability to Feel improvement ([1]; IDR n=8, 2 hours): 24 points
- MADRS Inner Tension improvement ([1]; IDR n=8, 2 hours): 15 points
- MADRS Lassitude improvement ([1]; IDR n=8, 2 hours): 17 points
- MADRS Pessimistic Thoughts improvement ([1]; IDR n=8, 2 hours): 21 points
- MADRS Pessimistic Thoughts percentage improvement ([1]; IDR n=8, 2 hours): 75.00%
- MADRS Suicidal Thoughts improvement ([1]; IDR n=8, 2 hours): 8 points
- MADRS Suicidal Thoughts aggregated score ([1]; IDR n=8, 2 hours, baseline 11): 3
- MADRS Inner Tension aggregated score ([1]; IDR n=8, 2 hours, baseline 26): 11
- MADRS Lassitude aggregated score ([1]; IDR n=8, 2 hours, baseline 27): 10
- MADRS Pessimistic Thoughts aggregated score ([1]; IDR n=8, 2 hours, baseline 28): 7
- MADRS Concentration Difficulties aggregated score ([1]; IDR n=8, 2 hours, baseline 30): 11
- MADRS Inability to Feel aggregated score ([1]; IDR n=8, 2 hours, baseline 36): 12
- BPRS Anxiety improvement ([1]; IDR n=8, 3 hours): 18 points
- BPRS Blunted Affect improvement ([1]; IDR n=8, 3 hours): 4 points
- BPRS Emotional Withdrawal improvement ([1]; IDR n=8, 3 hours): 5 points
- BPRS Guilt Feelings improvement ([1]; IDR n=8, 3 hours): 20 points
- BPRS Tension improvement ([1]; IDR n=8, 3 hours): 5 points
- BPRS Emotional Withdrawal aggregated score ([1]; IDR n=8, 3 hours, baseline 13): 8
- BPRS Blunted Affect aggregated score ([1]; IDR n=8, 3 hours, baseline 15): 11
- BPRS Tension aggregated score ([1]; IDR n=8, 3 hours, baseline 16): 11
- BPRS Guilt Feelings aggregated score ([1]; IDR n=8, 3 hours, baseline 34): 14
- BPRS Anxiety aggregated score ([1]; IDR n=8, 3 hours, baseline 37): 19
- Safety laboratory analyses, vital signs, psychiatric safety assessments, cognitive function ([1]; Part A and Part B): No clinically significant changes
- Patients with at least one ADR ([1]; 12 mg): 3 of 4
- Patients with at least one ADR ([1]; 18 mg): 3 of 4
- Patients with MADRS remission ([1]; Part B, IDR n=8, day seven): 87.5%
- Mean MADRS change from baseline, percent ([1]; Part B, IDR, day seven): 76%
- Patients achieving remission ([1]; day 1): 8/8
- Patients achieving remission ([1]; within 2 h after dosing): 5/8
- Induction of mutation [2]: did not induce mutation
- Detectability in the plasma ([3]; after 3 hours, 6, 12, 18 mg): no longer detectable
- Accumulation upon repeated administration ([3]; repeated within 1 to 4 hours): No accumulation is observed
